From patent US12539336B2, “Antibody, linkers, payload, conjugates and applications thereof” (GeneQuantum Healthcare (Suzhou) Co., Ltd., priority 2022, dated 2026) come the findings set out here.

Test [1] concerns Trop2-positive cells BxPC-3 and Trop2-negative HepG2 cells. Put plainly: Bystander killing in BxPC-3/HepG2 co-culture assay (BxPC-3:HepG2=2:1). Type of test: cell-based, human. As to conditions: effect example 1.3, conclusion. As to the method: (§1) A negative control group was set: 3 mL of 45% RPMI-1640+45% DMEM+10% FBS medium was added to each well. After the treatment, the cells were moved to the incubator and incubated for 96 h. After the incubation, cells were digested, and washed once with 1×PBS, then transferred to a flow tube, and centrifuged at 2000 rpm for 3 min. The supernatant was then discarded, and the cell amount and cell viability were detected. […] The cells were washed with 1×PBS, the supernatant was discarded after centrifugation, 200 μL of 5 μg/mL human IgG Fc antibody was added, and the resulting cells were continued to incubate at 4° C. for 30 min after mixing. Finally, the cells were washed with 1×PBS, the supernatant was discarded after centrifugation, and the cells were resuspended in PBS, detected by flow cytometry and analyzed by FlowJo software.

For test [2], the system named is Trop2-positive cells BxPC-3 and Trop2-negative cells HepG2. Kind of test: Bystander killing in BxPC-3/HepG2 co-culture assay (BxPC-3:HepG2=4:1). In kind it is cell-based, human. The conditions noted are these: effect example 1.1, conclusion. The procedure:
as §1

Turning to DS1062a, the bystander killing effect result in test [1] and in test [2] was “had bystander killing effects” throughout.
